*1 amine or outer side, *2 acyl side, *3 side chain or, on linkers, in order; H or OH if unused. Where a SMILES comes first, the peptide text is derived from it. Bridges are numbered along the chain shown (N, C = ends). [ ]: non-standard residue; d: D form. The star is where a group is joined. hPhe(3,5-F2-4-CF3) = N[C@@H](CCc1cc(F)c(C(F)(F)F)c(F)c1)C(=O)O; hPhe(3-Cl-4-CF3) = N[C@@H](CCc1ccc(C(F)(F)F)c(Cl)c1)C(=O)O; NPrPhe(4-CF3) = CCCN[C@@H](Cc1ccc(C(F)(F)F)cc1)C(=O)O; X49 = Cc1ccc(C[C@@H](C(=O)[*:2])N(CC2CC2)[*:1])cc1; Pro(4-spirocPr) = O=C(O)[C@@H]1CC2(CC2)CN1; NMeGly(cPent) = CN[C@H](C(=O)O)C1CCCC1; X7 = C[C@@](N[*:1])(C(=O)[*:2])C1CC1; NMeD = CN[C@@H](CC(=O)O)C(=O)O; NMeL = CN[C@@H](CC(C)C)C(=O)O; Morpholide = C1CN(*)CCO1; NMeA = CN[C@@H](C)C(=O)O; Ac5c = NC1(C(=O)O)CCCC1; Aze = O=C(O)[C@@H]1CCN1; Sar = CNCC(=O)O
Tests used:
[1] = tested on: human lung cancer strain NCI-H441; assay type: cell-based
Procedure, shortened: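 Readout: […] after the ATP-based reagent. Compound: serial dilutions in dimethyl sulfoxide.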

HRAS wild-type protein = HRAS wild-type protein (Homo sapiens, UniProt P01112); assay: Binding to HRAS by surface plasmon resonance (SPR), KD and KD ratio to KRAS
HRAS wild-type protein, sequence (P01112 whole entry): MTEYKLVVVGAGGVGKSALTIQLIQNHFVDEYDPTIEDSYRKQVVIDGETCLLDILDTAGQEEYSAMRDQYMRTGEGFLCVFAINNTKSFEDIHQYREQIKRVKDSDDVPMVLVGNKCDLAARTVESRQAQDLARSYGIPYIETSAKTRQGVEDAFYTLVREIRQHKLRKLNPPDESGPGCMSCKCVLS
Procedure, shortened: (§1)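 GDP-loaded biotinylated Avi-tag RAS proteins (E. coli-expressed) captured on a Biotin CAPture chip at ~100–300 RU; single-cycle kinetics at 30°C, 100 µL/min, 75 s injections of rising compound concentrations. HBS pH 7.4 running buffer with 1 mM DTT, 10 mM MgCl2, 10 µM GDP, 4% DMSO. KD from 1:1 binding fit.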

[2] = target: GDP-bound NRAS wild-type protein (Homo sapiens, UniProt P01111); assay: Binding to NRAS by surface plasmon resonance (SPR), KD and KD ratio to KRAS
GDP-bound NRAS wild-type protein, sequence (P01111 whole entry): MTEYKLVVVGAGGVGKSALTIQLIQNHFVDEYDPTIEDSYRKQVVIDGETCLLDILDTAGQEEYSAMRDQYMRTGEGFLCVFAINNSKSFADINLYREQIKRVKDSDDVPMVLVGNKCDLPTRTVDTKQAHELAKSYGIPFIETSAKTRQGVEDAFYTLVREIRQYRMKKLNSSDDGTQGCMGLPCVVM
Procedure, shortened: as §1

[3] = ratio of KD for HRAS wild-type protein to KD for KRAS
[4] = ratio of KD for GDP-bound NRAS wild-type protein to KD for KRAS

Row | IC50 [1] [nM] | SMILES | HRAS /KRAS (HRAS wild-type protein; [3]) | NRAS /KRAS [2, 4] | HRAS /KRAS (HRAS wild-type protein; ratio of the KD value with respect to HRAS wild-type protein to the KD value with respect to KRAS) | NRAS /KRAS ([2]; ratio of the KD value with respect to GDP-bound NRAS wild-type protein to the KD value with respect to KRAS)
1 | 4.6 | CCCN1C(=O)CN(C)C(=O)CN(C)C(=O)[C@H]([C@@H](C)CC)NC(=O)[C@H](CC(C)C)N(C)C(=O)C[C@@H](C(=O)N2CCOCC2)N(C)C(=O)[C@H](C2CCCC2)N(C)C(=O)C2(CCCC2)NC(=O)[C@@H]2CC3(CC3)CN2C(=O)[C@H](CCc2ccc(C(F)(F)F)c(Cl)c2)NC(=O)CN(C)C(=O)[C@@H]1Cc1ccc(C(F)(F)F)cc1 [PP0261] ([NMeL]I[Sar][Sar][NPrPhe(4-CF3)][Sar][hPhe(3-Cl-4-CF3)][Pro(4-spirocPr)][Ac5c][NMeGly(cPent)][NMeD]-Morpholide; lactam N-11) | C (A compound having a KD ratio of 0.1 or more and less than 3 is denoted as C) | B (a compound having 3 or more and less than 10 is denoted as B) |  | 
2 | 64.6 | CCO[C@@H]1C[C@H]2C(=O)NC3(CCC3)C(=O)N(C)[C@@H](C3CCCC3)C(=O)N(C)[C@H](C(=O)N(C)C)CC(=O)N(C)[C@@H](CC)C(=O)N[C@@H]([C@@H](C)CC)C(=O)N3CC[C@H]3C(=O)N(C)[C@H]3C/C=C\CCN(C3=O)[C@@H](Cc3ccc(C(F)(F)F)cc3)C(=O)N(C)CC(=O)N[C@@H](CCc3cc(F)c(C(F)(F)F)c(F)c3)C(=O)N2C1 [PP0984] | A (a compound having 10 or more and less than 20 is denoted as A) | A (a compound having 10 or more and less than 20 is denoted as A) |  | 
3 | 47.3 | CCC[C@H]1C(=O)N[C@@H]([C@@H](C)CC)C(=O)N(C)CC(=O)N(C)[C@H]2C/C=C\CCN(C2=O)[C@@H](Cc2ccc(C(F)(F)F)cc2)C(=O)N(C)CC(=O)N[C@@H](CCc2ccc(Cl)c(OC)c2)C(=O)N2C[C@H](OCC)C[C@H]2C(=O)NC2(CC(C)(C)C2)C(=O)N(C)[C@@H](C(CC)CC)C(=O)N(C)[C@H](C(=O)N(C)C)CC(=O)N1C [PP2789] | A (a compound having 10 or more and less than 20 is denoted as A) | AA (a compound having 20 or more is denoted as AA) |  | 
4 | 8.9 | CC[C@H](C)[C@@H]1NC(=O)[C@@H]2CCC/C=C/c3ccc(cc3)C[C@@H](C(=O)N(C)CC(=O)N[C@@H](CCc3ccc(Cl)c(Cl)c3)C(=O)N3CCC[C@H]3C(=O)NC3(CC(C)(C)C3)C(=O)N(C)[C@@H](C3CCCC3)C(=O)N(C)[C@H](C(=O)N(C)CC)CC(=O)N2C)N2CC/C=C\C[C@@H](C2=O)N(C)C(=O)CN(C)C1=O [PP2601] | A (a compound having 10 or more and less than 20 is denoted as A) | A (a compound having 10 or more and less than 20 is denoted as A) |  | 
5 | 86 | CCCN1C(=O)[C@@H]2CCN2C(=O)CN(C)C(=O)[C@H]([C@@H](C)CC)NC(=O)[C@H](CC(C)C)N(C)C(=O)C[C@@H](C(=O)N2CCOCC2)N(C)C(=O)[C@H](C2CCCC2)N(C)C(=O)[C@](C)(C2CC2)NC(=O)[C@@H]2CCCN2C(=O)[C@H](CCc2cc(F)c(C(F)(F)F)c(F)c2)NC(=O)CN(C)C(=O)[C@@H]1Cc1ccc(C(F)(F)F)cc1 [PP0791] ([NMeL]I[Sar][Aze][NPrPhe(4-CF3)][Sar][hPhe(3,5-F2-4-CF3)]P[X7][NMeGly(cPent)][NMeD]-Morpholide; lactam N-11) | B (a compound having 3 or more and less than 10 is denoted as B) | C (A compound having a KD ratio of 0.1 or more and less than 3 is denoted as C) |  | 
6 | 6.2 | CC[C@H](C)[C@@H]1NC(=O)[C@H](CC(C)C)N(C)C(=O)C[C@@H](C(=O)N2CCOCC2)N(C)C(=O)[C@H](C2CCCC2)N(C)C(=O)C2(CCCC2)NC(=O)[C@@H]2CCCN2C(=O)[C@H](CCc2ccc(C(F)(F)F)c(Cl)c2)NC(=O)CN(C)C(=O)[C@H](Cc2ccc(C)cc2)N(CC2CC2)C(=O)[C@@H]2CCN2C(=O)[C@H](C)N(C)C1=O [PP0057] ([NMeL]I[NMeA][Aze][X49][Sar][hPhe(3-Cl-4-CF3)]P[Ac5c][NMeGly(cPent)][NMeD]-Morpholide; lactam N-11) | B (a compound having 3 or more and less than 10 is denoted as B) | C (A compound having a KD ratio of 0.1 or more and less than 3 is denoted as C) |  | 

Row | SMILES | IC50 [1] [nM] | HRAS /KRAS (HRAS wild-type protein; [3]) | NRAS /KRAS [2, 4] | HRAS /KRAS (HRAS wild-type protein; ratio of the KD value with respect to HRAS wild-type protein to the KD value with respect to KRAS) | NRAS /KRAS ([2]; ratio of the KD value with respect to GDP-bound NRAS wild-type protein to the KD value with respect to KRAS)
7 | CC[C@H](C)[C@@H]1NC(=O)[C@H](CC(C)C)N(C)C(=O)C[C@@H](C(=O)N2CCCCC2)N(C)C(=O)[C@H](C2CCCC2)N(C)C(=O)C2(CCCC2)NC(=O)[C@@H]2CCCN2C(=O)[C@H](CCc2cc(F)c(C(F)(F)F)c(F)c2)NC(=O)CN(C)C(=O)[C@H](Cc2ccc(C(F)(F)F)cc2)N2CCCC[C@@H](C2=O)N(C)C(=O)CN(C)C1=O [PP0572] | 9 |  |  | B (a compound having 3 or more and less than 10 is denoted as B) | B (a compound having 3 or more and less than 10 is denoted as B)
